Measured values: PMC9870890 (Nature Communications, 2023)
Where two headings read alike, the source gives them in different places.

Legend:
[1] = target: T1, M2R (Homo sapiens, UniProt P08172); experiment: cell-based; settings: for Emax: HEK-293T
T1 sequence (P08172 1-466): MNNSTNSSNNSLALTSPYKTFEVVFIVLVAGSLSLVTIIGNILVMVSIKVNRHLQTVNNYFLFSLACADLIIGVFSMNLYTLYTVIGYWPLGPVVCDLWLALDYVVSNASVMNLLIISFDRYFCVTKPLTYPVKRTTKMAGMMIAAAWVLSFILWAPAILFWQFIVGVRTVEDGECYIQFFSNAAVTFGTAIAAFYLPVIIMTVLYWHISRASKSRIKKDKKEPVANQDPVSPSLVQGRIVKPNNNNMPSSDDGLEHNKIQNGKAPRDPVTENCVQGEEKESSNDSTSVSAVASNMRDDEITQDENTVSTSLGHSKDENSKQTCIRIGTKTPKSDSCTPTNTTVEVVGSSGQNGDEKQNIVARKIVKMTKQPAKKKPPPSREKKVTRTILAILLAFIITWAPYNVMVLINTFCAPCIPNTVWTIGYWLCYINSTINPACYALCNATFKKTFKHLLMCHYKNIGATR
Experimental: Measurement of G-protein mediated activation of M2R was performed applying the IP-One HTRF® accumulation assay (Cisbio, Codolet, France) as previously described protocols[29],[73]. In brief, HEK 293T cells were co-transfected with the cDNA coding for M2R and the hybrid G-protein Gαqi (Gαq protein with the last five amino acids at the C-terminus replaced by the corresponding sequence of Gαi; gift from The J. David Gladstone Institutes, San Francisco, CA) and transferred into 384-well micro plates. […] Accumulation of second messenger was stopped by addition of the detection reagents (IP1-d2 conjugate and Anti-IP1cryptate TB conjugate). […] Normalized concentration-response curves from four to eight experiments each done in duplicates were analyzed using the algorithms for four parameter non-linear regression implemented in PRISM 8.0 (GraphPad Software, USA) to derive EC50 and Emax values.

[2] = target: T1, M2R; experiment: cell-based; design: expressed in transfected cells; host or cells: HEK 293T; settings: for Emax: HEK-293T
Experimental: Determination of β-arrestin-2 recruitment was performed applying the PathHunter assay (DiscoverX, Birmingham, U.K.) which is based on fragment complementation of β-galactosidase as described. In detail, HEK293T cells were transfected with the flag-tagged M2 receptor carrying the PKA fragment for enzyme complementation and transferred into 384-well micro plates. […] Determination of chemoluminescence was done with a Clariostar plate reader (BMG, Ortenberg, Germany). […] Normalized curves from three to five individual experiments each done in duplicate were analyzed by non-linear regression applying the algorithms in Prism 8.0 (GraphPad, San Diego, CA) to get dose-response curves representing average EC50 and Emax value.

`C[N+](C)(C)CC#CCOC1=NOCC1` [Ixo, iperoxo] showed an EC50 [1] of 0.31 ± 0.043 nM, an Emax ([1]; read-out: Emax in % of acetylcholin, IP accumulation by iperoxo, agonist (absence of LY2119620)) of 115% and an Emax ([1]; read-out: Emax in % of acetylcholin, IP accumulation by iperoxo, agonist + 0.1 µM LY) of 111%. It also gave an Emax ([1]; read-out: Emax in % of acetylcholin, IP accumulation by iperoxo, agonist + 1 µM LY) of 105%, an Emax ([1]; read-out: Emax in % of acetylcholin, IP accumulation by iperoxo, agonist + 3 µM LY) of 104% and an Emax ([1]; read-out: Emax in % of acetylcholin, IP accumulation by iperoxo, agonist + 10 µM LY) of 104%. For the same molecule, the Emax ([1]; read-out: Emax in % of acetylcholin, IP accumulation by iperoxo, agonist + 100 µM LY) was 102%, the Emax ([1]; read-out: IP accumulation as % max effect of acetylcholin, iperoxo log [M] 3-8, 1µM LY2119620) was 103% and the Emax ([1]; read-out: IP accumulation as % max effect of acetylcholin, iperoxo log [M] 3-8, 3µM LY2119620) was 102%. For the same molecule, the Emax ([1]; read-out: IP accumulation as % max effect of acetylcholin, iperoxo log [M] 3-8, 10µM LY2119620) was 99.3%, the Emax ([1]; read-out: IP accumulation as % max effect of acetylcholin, iperoxo log [M] 3-8, 100µM LY2119620) was 98.3% and the Emax ([1]; read-out: IP accumulation as % max effect of acetylcholin, iperoxo log [M] 3-8, no LY2119620) was 111%. It also gave an Emax ([1]; read-out: IP accumulation as % max effect of acetylcholin, iperoxo log [M] 3-9, 0.1µM LY2119620) of 122%, an Emax ([1]; read-out: IP accumulation as % max effect of acetylcholin, iperoxo log [M] 3-9, 1µM LY2119620) of 104% and an Emax ([1]; read-out: IP accumulation as % max effect of acetylcholin, iperoxo log [M] 3-9, 3µM LY2119620) of 106%. For the same molecule, the Emax ([1]; read-out: IP accumulation as % max effect of acetylcholin, iperoxo log [M] 3-9, 10µM LY2119620) was 98.3%, the Emax ([1]; read-out: IP accumulation as % max effect of acetylcholin, iperoxo log [M] 3-9, 30µM LY2119620) was 87.5% and the Emax ([1]; read-out: IP accumulation as % max effect of acetylcholin, iperoxo log [M] 3-9, 100µM LY2119620) was 106%. For the same molecule, the Emax ([1]; read-out: IP accumulation as % max effect of acetylcholin, iperoxo log [M] 3-9, no LY2119620) was 113%, the Emax ([1]; read-out: IP accumulation as % max effect of acetylcholin, iperoxo log [M] 3-10, 0.1µM LY2119620) was 85.3% and the Emax ([1]; read-out: IP accumulation as % max effect of acetylcholin, iperoxo log [M] 3-10, 1µM LY2119620) was 100%. For the same molecule, the Emax ([1]; read-out: IP accumulation as % max effect of acetylcholin, iperoxo log [M] 3-10, 3µM LY2119620) was 104%, the Emax ([1]; read-out: IP accumulation as % max effect of acetylcholin, iperoxo log [M] 3-10, 10µM LY2119620) was 106% and the Emax ([1]; read-out: IP accumulation as % max effect of acetylcholin, iperoxo log [M] 3-10, 100µM LY2119620) was 104%. For the same molecule, the Emax ([1]; read-out: IP accumulation as % max effect of acetylcholin, iperoxo log [M] 3-11, 0.1µM LY2119620) was 26.4%, the Emax ([1]; read-out: IP accumulation as % max effect of acetylcholin, iperoxo log [M] 3-11, 10µM LY2119620) was 94.8% and the Emax ([1]; read-out: IP accumulation as % max effect of acetylcholin, iperoxo log [M] 3-12, 0.1µM LY2119620) was 12.3%. The Emax ([1]; read-out: IP accumulation as % max effect of acetylcholin, iperoxo log [M] 3-12, 1µM LY2119620) was 35.6%, the Emax ([1]; read-out: IP accumulation as % max effect of acetylcholin, iperoxo log [M] 3-12, 100µM LY2119620) was 80.3% and the Emax ([1]; read-out: IP accumulation as % max effect of acetylcholin, iperoxo log [M] -6, 0.1µM LY2119620) was 108%. For the same molecule, the Emax ([1]; read-out: IP accumulation as % max effect of acetylcholin, iperoxo log [M] -6, 1µM LY2119620) was 101%, the Emax ([1]; read-out: IP accumulation as % max effect of acetylcholin, iperoxo log [M] -6, 3µM LY2119620) was 101% and the Emax ([1]; read-out: IP accumulation as % max effect of acetylcholin, iperoxo log [M] -6, 10µM LY2119620) was 104%. For the same molecule, the Emax ([1]; read-out: IP accumulation as % max effect of acetylcholin, iperoxo log [M] -6, 30µM LY2119620) was 97%, the Emax ([1]; read-out: IP accumulation as % max effect of acetylcholin, iperoxo log [M] -6, 100µM LY2119620) was 104% and the Emax ([1]; read-out: IP accumulation as % max effect of acetylcholin, iperoxo log [M] -6, no LY2119620) was 102%. The Emax ([1]; read-out: IP accumulation as % max effect of acetylcholin, iperoxo log [M] -7, 0.1µM LY2119620) was 104%, the Emax ([1]; read-out: IP accumulation as % max effect of acetylcholin, iperoxo log [M] -7, 1µM LY2119620) was 104% and the Emax ([1]; read-out: IP accumulation as % max effect of acetylcholin, iperoxo log [M] -7, 3µM LY2119620) was 98.3%. For the same molecule, the Emax ([1]; read-out: IP accumulation as % max effect of acetylcholin, iperoxo log [M] -7, 10µM LY2119620) was 101%, the Emax ([1]; read-out: IP accumulation as % max effect of acetylcholin, iperoxo log [M] -7, 100µM LY2119620) was 102% and the Emax ([1]; read-out: IP accumulation as % max effect of acetylcholin, iperoxo log [M] -7, no LY2119620) was 107%. It also gave an Emax ([1]; read-out: IP accumulation as % max effect of acetylcholin, iperoxo log [M] -8, 0.1µM LY2119620) of 113%, an Emax ([1]; read-out: IP accumulation as % max effect of acetylcholin, iperoxo log [M] -8, 3µM LY2119620) of 106% and an Emax ([1]; read-out: IP accumulation as % max effect of acetylcholin, iperoxo log [M] -8, 10µM LY2119620) of 102%. The Emax ([1]; read-out: IP accumulation as % max effect of acetylcholin, iperoxo log [M] -8, no LY2119620) was 112%, the Emax ([1]; read-out: IP accumulation as % max effect of acetylcholin, iperoxo log [M] -9, 1µM LY2119620) was 108% and the Emax ([1]; read-out: IP accumulation as % max effect of acetylcholin, iperoxo log [M] -9, 10µM LY2119620) was 106%. For the same molecule, the Emax ([1]; read-out: IP accumulation as % max effect of acetylcholin, iperoxo log [M] -9, 100µM LY2119620) was 108%, the Emax ([1]; read-out: IP accumulation as % max effect of acetylcholin, iperoxo log [M] -10, 3µM LY2119620) was 100% and the Emax ([1]; read-out: IP accumulation as % max effect of acetylcholin, iperoxo log [M] -10, 10µM LY2119620) was 101%. The Emax ([1]; read-out: IP accumulation as % max effect of acetylcholin, iperoxo log [M] -12, 100µM LY2119620) was 94.6%, the Emax ([1]; read-out: IP accumulation as % max effect of acetylcholin, iperoxo log [M] -14, 0.1µM LY2119620) was 18.7% and the Emax ([1]; read-out: IP accumulation as % max effect of acetylcholin, iperoxo log [M] -14, 30µM LY2119620) was 79.3%. The Emax ([1]; read-out: IP accumulation as % max effect of acetylcholin, iperoxo log [M] -14, 100µM LY2119620) was 78.3%, the EC50 [2] was 0.35 ± 0.08 nM and the Emax ([2]; read-out: Emax in % of acetylcholin, arrestin recruitment by iperoxo, agonist + 0.1 µM LY) was 168%. For the same molecule, the Emax ([2]; read-out: Emax in % of acetylcholin, arrestin recruitment by iperoxo, agonist + 3 µM LY) was 172%, the Emax ([2]; read-out: Emax in % of acetylcholin, arrestin recruitment by iperoxo, agonist + 30 µM LY) was 170% and the Emax ([2]; read-out: Emax in % of acetylcholin, arrestin recruitment by iperoxo, agonist + 100 µM LY) was 170%. The Emax ([2]; read-out: arrestin recruitment as % max effect of acetylcholin, iperoxo log [M] 3-6) was 135%, the Emax ([2]; read-out: arrestin recruitment as % max effect of acetylcholin, iperoxo log [M] 3-7) was 142% and the Emax ([2]; read-out: arrestin recruitment as % max effect of acetylcholin, iperoxo log [M] 3-8) was 138%. It also gave an Emax ([2]; read-out: arrestin recruitment as % max effect of acetylcholin, iperoxo log [M] 3-8 + 1µM LY2119620) of 150%, an Emax ([2]; read-out: arrestin recruitment as % max effect of acetylcholin, iperoxo log [M] 3-8 + 10µM LY2119620) of 154% and an Emax ([2]; read-out: arrestin recruitment as % max effect of acetylcholin, iperoxo log [M] 3-8 + 30µM LY2119620) of 168%.
